Literature values, collected in patent US20110270212A1, “PHARMACOKINETIC CONTROL FOR OPTIMIZED INTERFERON DELIVERY” (MEDTRONIC, INC., priority 2007, published 2011).

Columns and labels:
HCV [1] = conditions: in vivo
HCV [2] = conditions: oral doses up to 4500 mg
HCV [3] = conditions: across all dosing arms
[4] = test system: Hepatitis C virus replication (replicon model); conditions: via protease inhibition
HCV [5] = conditions: ribavirin combined with interferon-α, genotype 1 population
[6] = subcutaneously

## [N-]=[N+]=N[C@]1(CO)O[C@@H](n2ccc(N)nc2=O)[C@H](O)[C@@H]1O [R1626, 4′-azidocytidine]
HCV [1]
  response with pegylated interferon/ribavirin: good response
HCV [2]
  tolerability: generally well-tolerated with increasing adverse events at the highest dose

## CC(C)C(=O)OC[C@H]1O[C@@H](n2ccc(N)nc2=O)[C@](C)(F)[C@@H]1OC(=O)C(C)C [R71278]
HCV [3]
  antiviral activity: dose-dependent antiviral activity

## COc1ccc2c(O[C@@H]3C[C@H]4C(=O)N[C@]5(C(=O)NS(=O)(=O)C6CC6)C[C@H]5/C=C\CCCCN(C)C(=O)[C@@H]4C3)cc(-c3nc(C(C)C)cs3)nc2c1C [TMC435350]
[4]
  Hepatitis C virus replication in replicon experiments: reduce the amount of Hepatitis C virus replication

## NC(=O)c1ncn([C@@H]2O[C@H](CO)[C@@H](O)[C@H]2O)n1 [ribavirin, 1-β-D-ribofuranosyl-1H-1,2,4-triazole-3-carboxamide]
HCV [5]
  therapeutic effectiveness of the combination: 29%

## interferon-α
[6]
  dose administered without adverse reactions: up to 300 million IU/m^2
